This is an account of results in patent publication US6906098B2, “Mixed steroidal 1,2,4,5-tetraoxane compounds and methods of making and using thereof” (priority 2002, dated 2005).

In general, MIC refers to the least concentration at which growth counts as inhibited. As usually defined, the IC50 is the concentration that gives 50% inhibition.

SMILES strings stand for the structures. Values after ≈ are worked out from the molar mass of the structure shown. Values joined by “and” are separate entries in the source; they are usually repeats but may differ in a detail not shown here. Equal entries are not always repeated. Where two headings read alike, the source gives them in different places.

The subject of assay [1] is Plasmodium falciparum chloroquine-susceptible strain D6. Nature of the assay: In vitro antimalarial drug susceptibility assay (radiolabeled hypoxanthine incorporation), strain D6. The note with it: for Strain D6 IC50: growth inhibition, chloroquine-susceptible strain D6, 66 h incubation; for IC50: Plasmodium falciparum, D6, 66 h, read-out: Strain D6 IC50, growth inhibition, chloroquine-susceptible strain D6, 66 h incubation. Type of assay: cell-based.

For assay [2], the system named is Plasmodium falciparum chloroquine-resistant strain W2. Nature of the assay: microbe, parasite or virus in culture. As to conditions: for Strain W2 IC50: growth inhibition, chloroquine-resistant strain W2, 66 h incubation; for IC50: Plasmodium falciparum, W2, 66 h, read-out: Strain W2 IC50, growth inhibition, chloroquine-resistant strain W2, 66 h incubation. Type of assay: cell-based.

The subject of assay [3] is D6 and W2 P. falciparum clones. Type of assay: cell-based, Plasmodium falciparum. The note with it: IC50 (W2)/IC50 (D6) ratio.
The test system of assay [4] is Mycobacterium tuberculosis H37Rv (ATCC 27294). Briefly: Primary screen, Microplate Alamar Blue Assay (MABA), percent inhibition. Type of assay: cell-based. The note with it: primary screening at 6.25 μg/ml; for inhibition at 6.25 µg/mL: Mycobacterium tuberculosis. The protocol: (§1) The activity of the compounds of the present invention against Mycobacterium tuberculosis was determined using the following assays conducted by the National Institute of Allergy and Infectious Diseases (NIAID) supports a TB drug acquisition and screening program, the TAACF.
To determine the percent inhibition the following assay was conducted. Primary screening was conducted at 6.25 μg/ml (or the molar equivalent of highest molecular weight compound in a given series of congeners) against Mycobacterium tuberculosis H37Rv (ATCC 27294) in BACTEC 12B medium using the Microplate Alamar Blue Assay (MABA). See Collins, L. and S. G. Franzblau. 1997. Microplate alamar blue assay versus BACTEC 460 system for high-throughput screening of compounds against Mycobacterium tuberculosis and Mycobacterium avium. Antimicrob Agents Chemother 41:1004-9, which is herein incorporated by reference.
Minimum compound requirements: 1.0 mg.

Assay [5] relates to M. tuberculosis H37Rv. Nature of the assay: Minimum inhibitory concentration (MIC) in the MABA. Type of assay: cell-based, Mycobacterium tuberculosis. Here is the method: as §1
2. Minimum Inhibitory Concentration (MIC)
The MIC is defined as the lowest concentration effecting a reduction in fluorescence of 90% relative to controls. Minimum compound requirements: 1.0 mg.

The test system of assay [6] is VERO cells. As to conditions: for IC50: Table 5, VERO cells.
Assay [7] relates to VERO cells. Nature of the assay: cells. The note with it: Chlorocebus sabaeus, Table 5.
Where [8] appears, read: Table 5, Alamar assay, M. tuberculosis H37Rv.
Where [9] appears, read: ratio of IC50 in VERO cells to MIC (M. tuberculosis H37Rv).
Setting [10] is: Table 5, Alamar assay, read-out: % Inhib.
[11] abbreviates: Mycobacterium tuberculosis, H37RV, Table 3, H37Rv, read-out: MIC.
[12] abbreviates: Mycobacterium tuberculosis, H37RV, Table 5, Alamar assay, M. tuberculosis H37Rv, read-out: MIC.

Regarding `CCC1CCC2(CC1)OOC1(CC[C@]3(C)C4C[C@H](OC(C)=O)[C@@]5(C)C(CC[C@@H]5C(C)CCC(=O)NC)C4[C@H](OC(C)=O)C[C@@H]3C1)OO2` (single isomer, unassigned) [30/1C41, N-Methyl-7α,12α-Diacetoxy-5β-cholan-24-amide-3-spiro-6′-(1′,2′,4′,5′-tetraoxacyclohexane)-3′-spiro-1″-((4″S or R)-ethyl)cyclohexane], the “Strain D6 IC50” value in assay [1] came out at 0.0185 µg/mL. Moreover, the “Strain W2 IC50” value in assay [2] came out at 0.00407 µg/mL. For the same compound, the “Resistance Index” value in assay [3] is listed as 0.22. In addition, the “% Inhib” value in assay [4] (Table 5, Alamar assay) turned out to be 99%. The compound further returned an MIC in assay [5] (setting [8]) of 3.13 µg/mL (≈ 4.73 µM). Also, in assay [6], the IC50 was determined as 1.59 µg/mL (≈ 2.4 µM). Besides, in assay [6] (setting [9]), the “SI (selectivity index)” value came out at 0.50.
As for `CCC1CCC2(CC1)OOC1(CC[C@]3(C)C4C[C@H](OC(C)=O)[C@@]5(C)C(CC[C@@H]5C(C)CCC(=O)NC)C4[C@H](OC(C)=O)C[C@@H]3C1)OO2` (single isomer, unassigned) [26/1C36, N-Methyl-7α,12α-Diacetoxy-5β-cholan-24-amide-3-spiro-6′-(1′,2′,4′,5′-tetraoxacyclohexane)-3′-spiro-1″-((4″R or S)-ethyl)cyclohexane], the “Strain D6 IC50” value in assay [1] is 0.00477 µg/mL. Further, the figures for the IC50 in assay [2] and in assay [7] were 0.00517 µg/mL (≈ 0.00781 µM) and 1.83 µg/mL (≈ 2.76 µM), respectively. Also, the “Resistance Index” value in assay [3] was found to be 1.08. Moreover, the inhibition at 6.25 µg/mL in assay [4] (setting [10]) was found to be 99%. The MIC in assay [5] (setting [8]) is 1.56 µg/mL (≈ 2.36 µM). Besides, the “SI (selectivity index)” value in assay [6] (setting [9]) is listed as 1.17.
Take `CNC(=O)CCC(C)[C@H]1CCC2C3C(C[C@H](OC(C)=O)[C@@]21C)[C@@]1(C)CCC2(C[C@H]1C[C@H]3OC(C)=O)OOC1(CCC(C)CC1)OO2` (stereo partly drawn) [22/1C31, N-Methyl-7α,12α-diacetoxy-5β-cholan-24-amide-3-spiro-6′-(1′,2′,4′,5′-tetraoxacyclohexane)-3′-spiro-1″-((4″S)-methyl)cyclohexane]: in assay [1], the “Strain D6 IC50” value came out at 0.01079 µg/mL. Moreover, the “Strain W2 IC50” value in assay [2] is 0.00769 µg/mL. Besides, in assay [3], the “Resistance Index” value is 0.71. Further, the “% Inhib” value in assay [4] (Table 5, Alamar assay) is given as 99%. The compound further showed an MIC in assay [5] (setting [8]) of 6.25 µg/mL (≈ 9.65 µM). This compound gave an IC50 in assay [6] of 1.83 µg/mL (≈ 2.82 µM). Besides, the “SI (selectivity index)” value in assay [6] (setting [9]) amounted to 0.29.
As for `CCNC(=O)CCC(C)[C@H]1CCC2C3C(C[C@H](OC(C)=O)[C@@]21C)[C@@]1(C)CCC2(C[C@H]1C[C@H]3OC(C)=O)OOC1(CCC(c3ccccc3)CC1)OO2` (single isomer, unassigned) [Compound 1C47, N-Ethyl-7α,12α-Diacetoxy-5β-cholan-24-amide-3-spiro-6′-(1′,2′,4′, 5′-tetraoxacyclohexane)-3′-spiro-1″-((4″R or S)-phenyl)cyclohexane], the “Strain D6 IC50” value in assay [1] stood at 0.00541 µg/mL. For the same compound, the “Strain W2 IC50” value in assay [2] worked out at 0.00587 µg/mL. Also, the “Resistance Index” value in assay [3] is 1.08. Further, the inhibition at 6.25 µg/mL is 50% in assay [4] (Table 3, H37Rv, read-out: Inhibition (%)) and 50% in assay [4] (setting [10]). The MIC in assay [5] (setting [11]) and in assay [5] (setting [12]) was over 6.25 µg/mL throughout.
As for `CC(=O)O[C@H]1CC2C(C3CC[C@H](C(C)CCC(N)=O)[C@]31C)[C@H](OC(C)=O)C[C@@H]1CC3(CC[C@]21C)OOC1(CCC(C)CC1)OO3` (stereo partly drawn) [21/1C30, 7α,12α-Diacetoxy-5β-cholan-24-amide-3-spiro-6′-(1′,2′,4′,5′-tetraoxacyclohexane)-3′-spiro-1″-((4″S)-methyl)cyclohexane], the “Strain D6 IC50” value in assay [1] was 0.0127 µg/mL. The “Strain W2 IC50” value in assay [2] worked out at 0.00894 µg/mL. Moreover, the “Resistance Index” value in assay [3] was 0.70. The “% Inhib” value in assay [4] (Table 5, Alamar assay) is 99%. This compound showed an MIC in assay [5] (setting [8]) of 6.25 µg/mL (≈ 9.86 µM). In assay [6], this compound yielded an IC50 of 2.43 µg/mL (≈ 3.83 µM). The “SI (selectivity index)” value in assay [6] (setting [9]) stood at 0.39.
As for `CCCNC(=O)CCC(C)[C@H]1CCC2C3C(C[C@H](OC(C)=O)[C@@]21C)[C@@]1(C)CCC2(C[C@H]1C[C@H]3OC(C)=O)OOC1(CCCCC1C)OO2` (stereo partly drawn) [16/1C25, N-(n-Propyl)-7α,12α-diacetoxy-5β-cholan-24-amide-3-spiro-6′-(1′,2′,4′,5′-tetraoxacyclohexane)-3′-spiro-1″-(2″-methyl)cyclohexane], the IC50 in assay [1] was found to be 0.00889 µg/mL (≈ 0.0132 µM); in assay [2] it was 0.00628 µg/mL (≈ 0.00929 µM). In addition, in assay [3], the “Resistance Index” value is on record as 0.71. The inhibition at 6.25 µg/mL in assay [4] (setting [10]) was 87%. Besides, the MIC in assay [5] (setting [12]) was over 6.25 µg/mL.
With `CCC1CCC2(CC1)OOC1(CC[C@]3(C)C4C[C@H](OC(C)=O)[C@@]5(C)C(CC[C@@H]5C(C)CCC(=O)OC)C4[C@H](OC(C)=O)C[C@@H]3C1)OO2` (single isomer, unassigned) [8i/1B13a, Methyl 7α,12α-diacetoxy-5β-cholan-24-oate-3-spiro-6′-(1′,2′,4′,5′-tetraoxacyclohexane)-3′-spiro-1″-((4″R or S)- and (4″S or R)-ethyl)cyclohexane], in assay [1], the “Strain D6 IC50” value is 0.00446 µg/mL. The IC50 in assay [2] turned out to be 0.00939 µg/mL (≈ 0.0142 µM). Besides, the “Resistance Index” value in assay [3] was 2.10. The inhibition at 6.25 µg/mL in assay [4] (setting [10]) was 62%. In addition, in assay [5] (setting [12]), the MIC was over 6.25 µg/mL.
For `COC(=O)CCC(C)[C@H]1CCC2C3C(C[C@H](OC(C)=O)[C@@]21C)[C@@]1(C)CCC2(C[C@H]1C[C@H]3OC(C)=O)OOC1(CCCCC1)OO2` (stereo partly drawn) [8b/1B05, Methyl 7α,12α-Diacetoxy-5β-cholan-24-oate-3-spiro-6′-(1′,2′,4′,5′-tetraoxacyclohexane)-3′-spirocyclohexane], the values for the IC50 in assay [1] and in assay [2] were 0.0136 µg/mL (≈ 0.0215 µM) and 0.0108 µg/mL (≈ 0.017 µM), respectively. In assay [3], the “Resistance Index” value is 0.79. Besides, the inhibition at 6.25 µg/mL in assay [4] (setting [10]) stood at 0%. In assay [5] (setting [12]), the MIC is over 6.25 µg/mL.
With `NNC(=O)c1ccncc1` [Isoniazid, reference compound], the MIC was 0.05 µg/mL and 0.36 µM in assay [5] (setting [11]); 0.025 to 0.05 µg/mL (≈ 0.182 to 0.365 µM) in assay [5] (setting [12]). In addition, the “SI (selectivity index)” value in assay [6] is recorded as > 40,000. In assay [7], this compound came in with an IC50 of over 1000 µg/mL.
Turning to `CNC(=O)CCC(C)[C@H]1CCC2C3C(C[C@H](OC(C)=O)[C@@]21C)[C@@]1(C)CCC2(C[C@H]1C[C@H]3OC(C)=O)OOC1(CCC(c3ccccc3)CC1)OO2` (single isomer, unassigned) [Compound 1C51, N-Methyl-7α,12α-Diacetoxy-5β-cholan-24-amide-3-spiro-6′-(1′,2′,4′,5′-tetraoxacyclohexane)-3′-spiro-1″-((4″S or R)-phenyl)cyclohexane], the “Strain D6 IC50” value in assay [1] worked out at 0.06462 µg/mL. For the same compound, in assay [2], the “Strain W2 IC50” value was determined as 0.05472 µg/mL. Further, the “Resistance Index” value in assay [3] came out at 0.85. For the same compound, the “Inhibition (%)” value in assay [4] (Table 3, H37Rv) was found to be 61%. Further, the “% Inhib” value in assay [4] (Table 5, Alamar assay) stood at 61%. The MIC in assay [5] (Table 3, H37Rv) was over 6.25 µg/mL; in assay [5] (setting [8]), over 6.25 µg/mL.
With `CC(=O)O[C@H]1CC2C(C3CC[C@H](C(C)CCC(N)=O)[C@]31C)[C@H](OC(C)=O)C[C@@H]1CC3(CC[C@]21C)OOC1(CCC(c2ccccc2)CC1)OO3` (single isomer, unassigned) [Compound 1C50, 7α,12α-Diacetoxy-5β-cholan-24-amide-3-spiro-6′-(1′,2′,4′,5′-tetraoxacyclohexane)-3′-spiro-1″-((4″S or R)-phenyl)cyclohexane], the “Strain D6 IC50” value in assay [1] came to 0.04049 µg/mL. In assay [2], the “Strain W2 IC50” value turned out to be 0.03746 µg/mL. The “Resistance Index” value in assay [3] is reported as 0.92. Further, the “Inhibition (%)” value in assay [4] (Table 3, H37Rv) came out at 87%. For the same compound, the “% Inhib” value in assay [4] (Table 5, Alamar assay) came out at 87%. For the same compound, the MIC in assay [5] (Table 3, H37Rv) is 6.25 µg/mL (≈ 8.98 µM); in assay [5] (setting [8]), over 6.25 µg/mL.
On to `COC(=O)CCC(C)[C@H]1CCC2C3C(C[C@H](OC(C)=O)[C@@]21C)[C@@]1(C)CCC2(C[C@H]1C[C@H]3OC(C)=O)OOC1(CCC(C(C)(C)C)CC1)OO2` (single isomer, unassigned) [8k/1B09a, Methyl 7α,12α-diacetoxy-5β-cholan-24-oate-3-spiro-6′-(1′,2′,4′,5′-tetraoxacyclohexane)-3′-spiro-1″-(4″R or S)- and (4″S or R)-t-butyl)cyclohexane], for which the “Strain D6 IC50” value in assay [1] was 0.07426 µg/mL. Besides, the IC50 in assay [2] amounted to 0.0364 µg/mL (≈ 0.0527 µM). Moreover, in assay [3], the “Resistance Index” value came out at 0.49. For the same compound, the “% Inhib” value in assay [4] (Table 5, Alamar assay, listed as 8g 1B09a) came to 32%. The same compound yielded an MIC in assay [5] (Mycobacterium tuberculosis, H37RV, Table 5, Alamar assay, M. tuberculosis H37Rv) of over 6.25 µg/mL.
